Measurements published in patent publication US9925166B2, “Methods of treating an overweight or obese subject” (Zafgen, Inc., priority 2008, dated 2018).

Biological target: T1, MetAP-2 (Mus musculus, UniProt O08663)
T1 construct: from tissue; host or cells: adipose tissue of diet-induced obese mice
Experiment: ELISA assay of MetAP-2 binding (free MetAP-2) in adipose tissue lysates of dosed diet-induced obese mice
Protocol: Diet-induced obese mice were orally (p.o.) administered fumagillin (3 mg/kg or 10 mg/kg; Medivet), subcutaneously administered (s.c.) TNP-470 (1 mg/kg, 3 mg/kg, 10 mg/kg, or 30 mg/kg; synthesized by standard semi-synthetic processes as described in European Patent EP 0 357 061), or administered a solution of 10% dimethyl sulfoxide (DMSO; control; Sigma-Aldrich). Mice were sacrificed and adipose tissue samples were obtained.
An ELISA assay of MetAP-2 binding was conducted with tissue lysates prepared from the adipose tissue samples. The MetAP-2 ELISA is a quantitative assay to determine the amount of free MetAP-2 in tissue or cell lysates, i.e., MetAP-2 not covalently bound to fumagillin or TNP-470. The assay takes advantage of the fact that biotinylated fumagillin can bind to the catalytic site of the MetAP-2 enzyme only if this site has not already been derivatized by fumagillin or TNP-470. The biotinylated MetAP-2-inhibitor complex was captured on a streptavidin-coated plate and detected with a rabbit anti-MetAP-2 antibody (Zymed Laboratories Inc.). Horseradish peroxidase-conjugated anti-rabbit immunoglobulin G (IgG) was added to detect the MetAP-2 antibody immobilized to the streptavidin-coated plate with its covalently bound biotinylated fumagillin. Tetramethylbenzidine (TMB) substrate was added and the reaction was stopped by addition of sulfuric acid. Analysis was performed by determining absorption at 450 nm. Human recombinant MetAP-2 (R&D Systems), pre-bound to biotinylated fumagillin, was used to generate a standard curve.

T1 sequence (O08663 whole entry): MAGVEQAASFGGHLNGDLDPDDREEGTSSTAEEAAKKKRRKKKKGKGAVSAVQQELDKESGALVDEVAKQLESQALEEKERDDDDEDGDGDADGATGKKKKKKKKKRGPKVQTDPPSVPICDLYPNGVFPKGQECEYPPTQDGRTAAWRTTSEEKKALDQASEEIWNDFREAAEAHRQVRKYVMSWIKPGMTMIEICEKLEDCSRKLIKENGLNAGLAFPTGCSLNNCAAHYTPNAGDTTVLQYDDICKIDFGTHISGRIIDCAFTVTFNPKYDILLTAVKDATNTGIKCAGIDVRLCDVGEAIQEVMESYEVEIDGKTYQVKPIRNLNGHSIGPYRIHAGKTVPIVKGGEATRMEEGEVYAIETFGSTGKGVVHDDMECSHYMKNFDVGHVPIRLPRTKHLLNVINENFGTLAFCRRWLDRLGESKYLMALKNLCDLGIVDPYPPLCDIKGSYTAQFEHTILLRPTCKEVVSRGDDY

**Q.** Which results are given for CO[C@@H]1[C@H](OC(=O)NC(=O)CCl)CC[C@]2(CO2)[C@H]1[C@@]1(C)O[C@@H]1CC=C(C)C [TNP-470]?
**A.** binding to MetAP-2 in adipose tissue (TNP-470 subcutaneously 1, 3, 10 or 30 mg/kg, diet-induced obese mice, FIG. 1): binds MetAP-2 in a dose dependent manner; binding to MetAP-2 in adipose tissue compared to orally administered fumagillin at the same dosages (s.c. TNP-470 vs p.o. fumagillin, 3 mg/kg and 10 mg/kg): greater binding
